Seven molecules from EPA's ToxRefDB 2 can be followed below.

Data set [1] relates to mouse. The settings on record: Subchronic oral toxicity in rodents, cd1, Gavage/Intubation, dose end: 3 month, group: systemic, systemic / pathology microscopic / gallbladder / degeneration + systemic / pathology microscopic / gallbladder / hyperplasia + systemic / ….
Data set [2] deals with rat. The settings on record: Sub-acute repeat dose toxicity, sprague dawley, Oral, Gavage/Intubation, dose end: 1 month, group: systemic.
For the next data set, the system named is primate. Particulars: Sub-acute repeat dose toxicity, macaque, Oral, Gavage/Intubation, dose end: 28 day, group: systemic.
The subject of data set [3] is rat. The settings on record: Prenatal developmental toxicity study, other, Oral, Gavage/Intubation, dose end: 15 GD.
For data set [4], the system named is rat. The settings on record: Subchronic oral toxicity in rodents, Fischer, Feed, dose end: 13 week, group: systemic, systemic / clinical chemistry / thyroxine (t4) / thyroxine (t4), total + systemic / clinical chemistry / triiodothyronine (t3) / ….
For data set [5], the system named is dog. The settings on record: Subchronic oral toxicity in nonrodent, beagle, Feed, dose end: 13 week, group: systemic, systemic / clinical chemistry / globulins / globulins + systemic / clinical chemistry / protein / protein + systemic / hematology / platelet….
Data set [6] relates to rat. Particulars: Prenatal developmental toxicity study, other, Oral, Gavage/Intubation, dose end: 15 GD. The source holds these as a separate data set.
Data set [7] relates to rat. Particulars: Subchronic oral toxicity in rodents, other, Feed, dose end: 13 week, group: systemic, systemic / pathology microscopic / stomach / erosion + systemic / pathology microscopic / stomach / inflammation + systemic / pathology ….
For data set [8], the system named is rat. The settings on record: Multigenerational reproductive toxicity study, other, Oral, Feed, dose end: 2 generation.
The subject of data set [9] is dog. Particulars: Subchronic oral toxicity in nonrodent, beagle, Gavage/Intubation, dose end: 91 day, group: systemic, systemic / in life observation / body weight / body weight + systemic / in life observation / body weight / body weight gain + systemic / ….
Data set [10] deals with rat. Particulars: Subchronic oral toxicity in rodents, other, Gavage/Intubation, dose end: 90 day, group: systemic, systemic / in life observation / body weight / body weight + systemic / in life observation / body weight / body weight gain + systemic / ….
Another data set relates to rabbit. Particulars: Prenatal developmental toxicity study, new zealand white, Oral, Gavage/Intubation, dose end: 28 GD.
Data set [11] relates to rat. The settings on record: Multigenerational reproductive toxicity study, sprague dawley, Oral, Feed, dose end: 2 generation.
For data set [12], the system named is dog. Particulars: Subchronic oral toxicity in nonrodent, beagle, Feed, dose end: 90 day, group: systemic.
Data set [13] relates to dog. Particulars: Chronic toxicity, beagle, Oral, Feed, dose end: 104 week, group: systemic.
The test system of data set [14] is mouse. The settings on record: Carcinogenicity, cd1, Oral, Feed, dose end: 104 week, group: systemic.
Data set [15] concerns rat. The settings on record: Developmental neurotoxicity study; long evans; Injection; Subcutaneous; dose end: 132 PND; group: cannot be grouped; systemic / pathology gross / brain / reduced size + systemic / pathology microscopic / brain / depletion cellular.
Data set [16] has as its system rat. Particulars: Prenatal developmental toxicity study, other, Oral, Gavage/Intubation, dose end: 15 GD. The source holds these as a separate data set.
The test system of data set [17] is rat. Particulars: Subchronic oral toxicity in rodents, other, Feed, dose end: 13 week, group: systemic.
Where [18] appears, read: systemic / clinical chemistry / alanine aminotransferase (alt/sgpt) / alanine aminotransferase (alt/sgpt) + systemic / clinical chemistry / ….
Where [19] appears, read: systemic / clinical chemistry / albumin / albumin + systemic / clinical chemistry / calcium / calcium + systemic / in life observation / ….
Where [20] appears, read: group: developmental, developmental / developmental malformation / bone / incomplete ossification + developmental / developmental malformation / bone / wavy + ….
[21] abbreviates: group: maternal, systemic / in life observation / body weight / body weight gain + systemic / in life observation / food consumption / food consumption.
Where [22] appears, read: group: maternal, systemic / in life observation / body weight / body weight gain + systemic / in life observation / food consumption / food consumption + ….
Setting [23] is: group: developmental, developmental / developmental malformation / bone / wavy.
The mark [24] stands for this setting: group: maternal, systemic / in life observation / body weight / body weight gain.
Setting [25] is: group: offspring, systemic / organ weight / spleen / absolute + systemic / organ weight / spleen / relative to body weight + developmental / offspring ….
[26] abbreviates: group: offspring, systemic / organ weight / spleen / absolute + systemic / organ weight / spleen / relative to body weight + systemic / organ weight / thymus….
[27] abbreviates: group: parental, systemic / in life observation / body weight / body weight + systemic / in life observation / clinical signs / general pallor.
The mark [28] stands for this setting: group: developmental, developmental / developmental malformation / kidney / small renal papilla.
Setting [29] is: group: maternal, systemic / in life observation / clinical signs / body surface staining + systemic / in life observation / food consumption / food ….
Where [30] appears, read: group: offspring, systemic / in life observation / body weight / offspring (pup) weight.
[31] abbreviates: group: parental, systemic / pathology microscopic / epididymis / hypospermia + systemic / pathology microscopic / testes / atrophy + systemic / pathology ….
Setting [32] is: systemic / clinical chemistry / cholesterol / cholesterol + systemic / clinical chemistry / albumin / albumin + systemic / in life ….
Setting [33] is: systemic / pathology microscopic / liver / [other] + systemic / clinical chemistry / alanine aminotransferase (alt/sgpt) / alanine ….
Where [34] appears, read: systemic / pathology microscopic / liver / [other] + systemic / in life observation / body weight / body weight gain + systemic / in life ….
[35] abbreviates: systemic / pathology microscopic / liver / adenoma/carcinoma combined + systemic / pathology microscopic / liver / carcinoma + systemic / ….
The mark [36] stands for this setting: systemic / pathology microscopic / liver / carcinoma + systemic / pathology microscopic / liver / adenoma/carcinoma combined + systemic / ….
[37] abbreviates: group: developmental, developmental / developmental malformation / bone / fused + developmental / developmental malformation / bone / incomplete ossification.
Setting [38] is: systemic / in life observation / body weight / body weight + systemic / in life observation / food consumption / food efficiency + systemic….

A value given as a limit tells only on which side of the number the result lay.

With `OCC(CO)n1cnc(-c2ccc(F)cc2)c1-c1ccnc(Oc2ccccc2)n1`, the LEL was 30 mg/kg/day with mouse [1]; 30 mg/kg/day in the data set with rat [2] (systemic / in life observation / body weight / body weight gain); 300 mg/kg/day in the data set with primate (systemic / clinical chemistry / calcium / calcium + systemic / in life observation / clinical signs / feces, discoloration + systemic / …). The LOAEL in the data set with mouse [1] is > 300 mg/kg/day; in the data set on rat [2] (setting [18]), > 2000 mg/kg/day; with primate (setting [19]), > 2000 mg/kg/day. Further, the NEL was < 30 mg/kg/day with mouse [1], 3 mg/kg/day in the data set with rat [2] (setting [18]) and 10 mg/kg/day in the data set on primate (setting [19]). Further, the NOAEL was ≥ 300 mg/kg/day in the data set with mouse [1], ≥ 2000 mg/kg/day in the data set on rat [2] (setting [18]) and ≥ 2000 mg/kg/day in the data set with primate (setting [19]).

In the case of `CNC.O=C(O)COc1ccc(Cl)cc1Cl` [2,4-D, Dimethylamine salt], the lowest-observed-adverse-effect level (LOAEL) stood at 100 mg/kg/day in the data set on rat [3] (setting [20]), 50 mg/kg/day in the data set with rat [3] (setting [21]) and 120 mg/kg/day in the data set with rat [4]. The NEL with rat [3] (setting [20]) is 12.5 mg/kg/day; in the data set on rat [3] (setting [22]) it was 12.5 mg/kg/day; in the data set on rat [4] it was 18.1 mg/kg/day. Also, the no-observed-adverse-effect level (NOAEL) in the data set on rat [3] (setting [20]) came to 50 mg/kg/day; in the data set on rat [3] (setting [22]), 12.5 mg/kg/day; in the data set on rat [4], 18.1 mg/kg/day. Also, the LEL in the data set on rat [3] (group: developmental, developmental / developmental malformation / general / [other]) was found to be 50 mg/kg/day; in the data set with rat [3] (setting [21]) it was 50 mg/kg/day; with rat [4], 120 mg/kg/day.

For `CCCCCCCCn1sc(Cl)c(Cl)c1=O` [4,5-Dichloro-2-octyl-3(2H)-isothiazolone], the LEL was found to be 45.9 mg/kg/day with dog [5]; 100 mg/kg/day in the data set on rat [6] (setting [23]); 10 mg/kg/day with rat [6] (setting [24]); 60.7 mg/kg/day in the data set on rat [7]; 20 mg/kg/day with rat [8] (setting [26]); 40 mg/kg/day in the data set with rat [8] (group: parental, systemic / in life observation / body weight / body weight + systemic / in life observation / body weight / body weight gain + systemic / in…). The LOAEL turned out to be 45.9 mg/kg/day in the data set with dog [5]; 100 mg/kg/day with rat [6] (setting [23]); 30 mg/kg/day in the data set with rat [6] (group: maternal, systemic / in life observation / clinical signs / defecation + systemic / in life observation / food consumption / food consumption); 60.7 mg/kg/day in the data set on rat [7]; 20 mg/kg/day with rat [8] (setting [26]); 40 mg/kg/day in the data set on rat [8] (group: parental, systemic / in life observation / body weight / body weight + systemic / in life observation / body weight / body weight gain). The NEL with dog [5] is 10.1 mg/kg/day; in the data set with rat [6] (setting [23]), 30 mg/kg/day; with rat [6] (setting [24]) it was < 10 mg/kg/day; in the data set with rat [7], 32.5 mg/kg/day; with rat [8] (setting [25]) it was 10 mg/kg/day; in the data set on rat [8] (setting [27]) it was 20 mg/kg/day. The NOAEL in the data set on dog [5] stood at 10.1 mg/kg/day; in the data set on rat [6] (setting [23]), 30 mg/kg/day; in the data set on rat [6] (group: maternal, systemic / in life observation / clinical signs / defecation + systemic / in life observation / food consumption / food consumption + …), 10 mg/kg/day; in the data set on rat [7], 32.5 mg/kg/day; in the data set on rat [8] (setting [25]), 10 mg/kg/day; in the data set on rat [8] (setting [27]), 20 mg/kg/day.

With `CCC(CN1CCOCC1)[N+](=O)[O-]` (stereo not given) [4-(2-Nitrobutyl)morpholine], in the data set on dog [9], the LEL was 25 mg/kg/day, the LOAEL is 25 mg/kg/day, the NEL is 10 mg/kg/day and the NOAEL turned out to be 10 mg/kg/day. Besides, in the data set on rat [10], the LEL turned out to be 10 mg/kg/day, the LOAEL is > 50 mg/kg/day, the NEL is 5 mg/kg/day and the NOAEL was ≥ 50 mg/kg/day.

With `CCCCNC(=O)n1c(NC(=O)OC)nc2ccccc21` [Benomyl], the LEL in the data set on rabbit (setting [28]) is 180 mg/kg/day; with rabbit (setting [29]), 180 mg/kg/day; with rat [11] (setting [30]), 234 mg/kg/day; in the data set on rat [11] (setting [31]), 168 mg/kg/day; in the data set on dog [12] (systemic / clinical chemistry / cholesterol / cholesterol) it was 12.5 mg/kg/day; in the data set on dog [13] (setting [33]) it was 62.5 mg/kg/day. For the same molecule, the LEL with mouse [14] (setting [36]) worked out at 75 mg/kg/day. Besides, the LOAEL in the data set with rabbit (setting [28]) was determined as 180 mg/kg/day; with rabbit (setting [29]), 180 mg/kg/day; with rat [11] (setting [30]), 234 mg/kg/day; in the data set with rat [11] (group: parental, systemic / pathology microscopic / epididymis / hypospermia) it was 234 mg/kg/day; in the data set with dog [12] (systemic / clinical chemistry / cholesterol / cholesterol + systemic / clinical chemistry / alanine aminotransferase (alt/sgpt) / alanine …) it was 37.5 mg/kg/day; with dog [13] (setting [33]), 62.5 mg/kg/day. For the same molecule, the LOAEL in the data set on mouse [14] (setting [35]) is > 750 mg/kg/day. Besides, the NEL came to 90 mg/kg/day with rabbit (setting [28]); 90 mg/kg/day in the data set with rabbit (setting [29]); 38 mg/kg/day with rat [11] (group: offspring, systemic / in life observation / body weight / offspring (pup) weight + systemic / in life observation / clinical signs / reduced body size); 28 mg/kg/day with rat [11] (setting [31]); 2.5 mg/kg/day in the data set on dog [12] (setting [32]); 12.5 mg/kg/day in the data set with dog [13] (setting [34]). For the same molecule, the NEL in the data set with mouse [14] (setting [36]) was < 75 mg/kg/day. Besides, the no observed adverse effect level (NOAEL) came out at 90 mg/kg/day with rabbit (setting [28]); 90 mg/kg/day with rabbit (setting [29]); 38 mg/kg/day with rat [11] (setting [30]); 38 mg/kg/day in the data set on rat [11] (group: parental, systemic / pathology microscopic / epididymis / hypospermia + systemic / in life observation / body weight / body weight + systemic / in …); 12.5 mg/kg/day in the data set with dog [12] (setting [32]); 12.5 mg/kg/day in the data set on dog [13] (setting [34]). Moreover, in the data set on mouse [14] (setting [35]), the no observed adverse effect level (NOAEL) is ≥ 750 mg/kg/day.

`COc1cc2c(c(OC)c1OC)-c1ccc(OC)c(=O)cc1[C@@H](NC(C)=O)CC2` [Colchicine]: in the data set on rat [15], the LEL was determined as 0.4 mg/kg/day, the LOAEL is > 0.4 mg/kg/day, the NEL was < 0.4 mg/kg/day and the NOAEL was ≥ 0.4 mg/kg/day.

For `CC(C)Nc1nc(N)nc(Cl)n1` [Deethylatrazine], the LEL is 100 mg/kg/day in the data set with rat [16] (setting [37]), 25 mg/kg/day in the data set with rat [16] (setting [21]) and 35.1 mg/kg/day in the data set with rat [17] (setting [38]). Also, the lowest-observed-adverse-effect level (LOAEL) was 100 mg/kg/day with rat [16] (setting [37]), 25 mg/kg/day with rat [16] (setting [21]) and 35.1 mg/kg/day in the data set on rat [17] (systemic / in life observation / body weight / body weight + systemic / in life observation / food consumption / food efficiency). The figures for the NEL in the data set with rat [16] (setting [37]), in the data set on rat [16] (setting [22]) and in the data set on rat [17] (setting [38]) were 25 mg/kg/day, 5 mg/kg/day and 3.2 mg/kg/day, respectively. The no observed adverse effect level (NOAEL) was 25 mg/kg/day in the data set with rat [16] (setting [37]), 5 mg/kg/day in the data set on rat [16] (setting [22]) and 3.2 mg/kg/day in the data set on rat [17] (setting [38]).

The LOAEL is the lowest tested level that showed an adverse finding. Broadly, the NOAEL is the highest tested level that showed no adverse finding.
